Where two headings read alike, the source gives them in different places.
Legend:
EGFR = EGFR (Homo sapiens, UniProt P00533); test: Kinase-Glo Plus RTK selectivity assay, EGFR; type: biochemical; conditions: 10 μM ATP
Protocol: (§1) A 50 μL reaction mixture contains 40 mM Tris, pH 7.4, 10 mM MgCl2, 0.1 mg/ml BSA, 1 mM DTT, 10 μM ATP, kinase and substrate (0.2 mg/mL Poly(Glu, Tyr)/10 μM ATP). The test compounds were diluted in 10% DMSO and 5 μL of the dilution was added to a 50 μL reaction so that the final concentration of DMSO is 1% in all of reactions. The assay was performed using Kinase-Glo Plus luminescence kinase assay kit. It measures kinase activity by quantitating the amount of ATP remaining in solution following a kinase reaction. The luminescent signal from the assay is correlated with the amount of ATP present and is inversely correlated with the amount of kinase activity. The IC50 values were calculated using nonlinear regression with normalized dose−response fit using Prism GraphPad software.

EphB4 = biological target: T1, EphB4 (Homo sapiens, UniProt P54760); test: ADP-Glo in vitro RTK inhibition assay, EphB4; type: biochemical; conditions: ATP 50 μM
T1 sequence (P54760 16-987): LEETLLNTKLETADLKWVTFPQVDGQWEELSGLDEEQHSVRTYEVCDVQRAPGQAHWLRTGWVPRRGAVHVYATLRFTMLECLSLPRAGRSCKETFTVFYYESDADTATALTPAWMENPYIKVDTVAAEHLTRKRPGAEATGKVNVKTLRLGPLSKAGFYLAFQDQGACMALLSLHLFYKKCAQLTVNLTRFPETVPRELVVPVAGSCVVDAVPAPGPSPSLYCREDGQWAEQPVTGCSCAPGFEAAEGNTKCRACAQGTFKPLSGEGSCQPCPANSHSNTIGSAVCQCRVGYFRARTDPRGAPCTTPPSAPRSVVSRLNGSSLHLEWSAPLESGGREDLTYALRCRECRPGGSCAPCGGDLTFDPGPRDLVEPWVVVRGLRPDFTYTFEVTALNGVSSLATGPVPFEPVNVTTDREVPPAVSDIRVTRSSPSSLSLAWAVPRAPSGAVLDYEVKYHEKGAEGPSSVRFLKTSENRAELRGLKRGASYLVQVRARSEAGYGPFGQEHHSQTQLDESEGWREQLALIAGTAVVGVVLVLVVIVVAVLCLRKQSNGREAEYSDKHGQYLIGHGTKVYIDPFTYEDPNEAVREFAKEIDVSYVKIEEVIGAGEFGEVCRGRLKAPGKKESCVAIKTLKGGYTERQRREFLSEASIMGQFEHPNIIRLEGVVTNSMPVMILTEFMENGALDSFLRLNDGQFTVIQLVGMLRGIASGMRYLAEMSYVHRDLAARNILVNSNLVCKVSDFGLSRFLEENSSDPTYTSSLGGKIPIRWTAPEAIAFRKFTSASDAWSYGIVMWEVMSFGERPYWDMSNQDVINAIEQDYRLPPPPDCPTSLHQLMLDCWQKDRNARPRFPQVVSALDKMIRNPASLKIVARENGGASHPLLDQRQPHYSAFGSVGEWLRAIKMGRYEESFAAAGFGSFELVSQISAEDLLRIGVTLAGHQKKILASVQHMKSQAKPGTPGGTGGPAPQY
Protocol: (§2) In order to validate the direct effect of title compounds on VEGFR-2, Tie-2, and EphB4 kinases, we performed in vitro assay using the ADP-Glo Kinase Assay Kit (Promega, Wisconsin, USA).
(§3) The kinase assay was performed in a reaction mixture of final volume of 10 μL. […] The plate was incubated at 30°C for 1 h. After the plate was cooled at room temperature for 5 min, 5 μL of ADP-Glo reagent was added into each well to stop the reaction and consume the remaining […] within 40 min. At the end, 10 μL of kinase detection reagent was added into the well and incubated for 30 min to produce a luminescence signal. […] The assay plate was incubated at 30°C for 4 h. After the plate was cooled at room temperature for 5 min, 5 μL of ADP-Glo reagent was added into each well to stop the reaction and consume the remaining […] within 1 h. At the end, 10 μL of kinase detection reagent was added into each well and incubated for 30 min to produce a luminescence signal. The luminescence was read by VICTOR-X multi-label plate reader.

VEGFR-2 [1] = biological target: T2, VEGFR-2 (Homo sapiens, UniProt P35968); test: ADP-Glo in vitro RTK inhibition assay, VEGFR-2; type: biochemical; conditions: ATP 50 μM
T2 sequence (P35968 20-1356): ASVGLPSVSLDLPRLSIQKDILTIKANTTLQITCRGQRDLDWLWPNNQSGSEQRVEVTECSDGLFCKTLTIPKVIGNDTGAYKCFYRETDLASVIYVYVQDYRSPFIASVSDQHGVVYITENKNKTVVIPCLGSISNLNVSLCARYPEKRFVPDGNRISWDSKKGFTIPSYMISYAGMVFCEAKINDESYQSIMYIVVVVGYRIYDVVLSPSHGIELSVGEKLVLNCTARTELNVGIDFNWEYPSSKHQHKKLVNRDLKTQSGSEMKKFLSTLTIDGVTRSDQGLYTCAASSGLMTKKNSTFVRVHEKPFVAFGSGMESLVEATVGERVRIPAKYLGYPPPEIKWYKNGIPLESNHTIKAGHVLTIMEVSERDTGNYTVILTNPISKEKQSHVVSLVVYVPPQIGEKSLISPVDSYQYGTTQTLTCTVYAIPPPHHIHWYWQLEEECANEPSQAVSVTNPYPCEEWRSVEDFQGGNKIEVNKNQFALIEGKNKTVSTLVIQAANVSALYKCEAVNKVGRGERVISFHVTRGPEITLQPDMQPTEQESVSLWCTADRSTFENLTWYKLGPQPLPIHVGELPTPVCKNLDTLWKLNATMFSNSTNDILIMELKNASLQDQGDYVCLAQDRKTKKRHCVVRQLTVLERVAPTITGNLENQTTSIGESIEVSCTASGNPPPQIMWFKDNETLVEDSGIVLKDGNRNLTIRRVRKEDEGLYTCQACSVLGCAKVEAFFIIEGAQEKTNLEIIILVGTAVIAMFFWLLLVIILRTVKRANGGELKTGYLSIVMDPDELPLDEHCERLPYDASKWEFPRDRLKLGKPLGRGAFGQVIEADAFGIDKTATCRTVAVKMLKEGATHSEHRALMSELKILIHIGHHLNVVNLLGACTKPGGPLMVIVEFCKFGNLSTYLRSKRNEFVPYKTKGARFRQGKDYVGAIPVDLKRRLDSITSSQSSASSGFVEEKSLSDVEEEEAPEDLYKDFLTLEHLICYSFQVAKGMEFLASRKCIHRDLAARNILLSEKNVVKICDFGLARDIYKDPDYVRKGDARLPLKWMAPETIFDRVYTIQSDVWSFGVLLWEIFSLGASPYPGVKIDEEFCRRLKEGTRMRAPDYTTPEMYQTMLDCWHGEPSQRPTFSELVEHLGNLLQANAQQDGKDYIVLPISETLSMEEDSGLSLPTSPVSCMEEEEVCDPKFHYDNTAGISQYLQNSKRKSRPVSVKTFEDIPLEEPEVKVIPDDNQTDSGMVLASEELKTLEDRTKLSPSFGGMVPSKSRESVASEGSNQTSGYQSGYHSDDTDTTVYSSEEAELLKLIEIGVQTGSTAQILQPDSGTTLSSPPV
Protocol: as §2, §3

B-Raf = B-Raf (Homo sapiens, UniProt P15056); test: Kinase-Glo Plus RTK selectivity assay, B-Raf; type: biochemical; conditions: 10 μM ATP
Chain of B-Raf (P15056 whole entry, species assumed): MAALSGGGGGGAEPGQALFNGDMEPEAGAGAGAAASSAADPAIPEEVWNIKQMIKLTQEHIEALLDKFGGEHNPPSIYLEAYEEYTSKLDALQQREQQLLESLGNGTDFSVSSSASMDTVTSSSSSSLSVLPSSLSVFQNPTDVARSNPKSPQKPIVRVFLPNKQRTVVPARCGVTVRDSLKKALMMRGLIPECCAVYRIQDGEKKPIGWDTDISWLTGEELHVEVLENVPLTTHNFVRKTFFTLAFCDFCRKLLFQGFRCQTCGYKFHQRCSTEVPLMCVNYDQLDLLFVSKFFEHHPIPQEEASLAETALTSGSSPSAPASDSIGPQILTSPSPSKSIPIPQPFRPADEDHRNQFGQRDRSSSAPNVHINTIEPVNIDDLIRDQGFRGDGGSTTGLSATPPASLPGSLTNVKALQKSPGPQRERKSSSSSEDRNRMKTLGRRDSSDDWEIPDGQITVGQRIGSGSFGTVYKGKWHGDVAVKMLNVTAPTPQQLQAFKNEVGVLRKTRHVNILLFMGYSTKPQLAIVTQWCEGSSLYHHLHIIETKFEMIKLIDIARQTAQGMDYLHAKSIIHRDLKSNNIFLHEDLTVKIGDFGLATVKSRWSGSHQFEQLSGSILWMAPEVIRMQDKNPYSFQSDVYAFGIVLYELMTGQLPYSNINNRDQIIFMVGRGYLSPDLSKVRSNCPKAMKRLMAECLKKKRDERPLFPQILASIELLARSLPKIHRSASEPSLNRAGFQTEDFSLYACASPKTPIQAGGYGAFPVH
Protocol: as §1

FGFR-4 = FGFR-4 (Homo sapiens, UniProt P22455); test: Kinase-Glo Plus RTK selectivity assay, FGFR-4; type: biochemical; conditions: 10 μM ATP
Chain of FGFR-4 (P22455 22-802, species assumed): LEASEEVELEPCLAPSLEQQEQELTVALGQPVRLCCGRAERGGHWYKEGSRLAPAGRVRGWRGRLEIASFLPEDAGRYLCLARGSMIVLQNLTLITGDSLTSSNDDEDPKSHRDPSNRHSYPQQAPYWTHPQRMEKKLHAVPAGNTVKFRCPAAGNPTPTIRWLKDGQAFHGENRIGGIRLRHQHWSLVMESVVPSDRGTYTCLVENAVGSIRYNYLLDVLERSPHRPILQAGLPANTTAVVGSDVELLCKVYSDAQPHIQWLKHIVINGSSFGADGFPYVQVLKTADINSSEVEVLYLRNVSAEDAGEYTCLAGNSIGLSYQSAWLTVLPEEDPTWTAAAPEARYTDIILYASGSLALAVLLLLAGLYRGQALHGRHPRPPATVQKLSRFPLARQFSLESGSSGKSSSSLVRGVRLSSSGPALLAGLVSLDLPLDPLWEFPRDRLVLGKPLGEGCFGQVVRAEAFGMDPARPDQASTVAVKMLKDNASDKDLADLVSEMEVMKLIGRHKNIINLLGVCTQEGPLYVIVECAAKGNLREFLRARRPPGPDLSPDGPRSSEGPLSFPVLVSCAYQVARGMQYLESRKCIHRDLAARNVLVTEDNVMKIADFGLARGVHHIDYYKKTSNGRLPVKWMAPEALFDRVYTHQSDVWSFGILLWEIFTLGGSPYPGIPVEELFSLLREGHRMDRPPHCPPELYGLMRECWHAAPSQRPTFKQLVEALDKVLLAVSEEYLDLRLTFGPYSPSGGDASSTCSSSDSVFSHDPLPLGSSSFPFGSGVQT
Protocol: as §1

FGFR-1 = FGFR-1 (Homo sapiens, UniProt P11362); test: Kinase-Glo Plus RTK selectivity assay, FGFR-1; type: biochemical; conditions: 10 μM ATP
Chain of FGFR-1 (P11362 22-822, species assumed): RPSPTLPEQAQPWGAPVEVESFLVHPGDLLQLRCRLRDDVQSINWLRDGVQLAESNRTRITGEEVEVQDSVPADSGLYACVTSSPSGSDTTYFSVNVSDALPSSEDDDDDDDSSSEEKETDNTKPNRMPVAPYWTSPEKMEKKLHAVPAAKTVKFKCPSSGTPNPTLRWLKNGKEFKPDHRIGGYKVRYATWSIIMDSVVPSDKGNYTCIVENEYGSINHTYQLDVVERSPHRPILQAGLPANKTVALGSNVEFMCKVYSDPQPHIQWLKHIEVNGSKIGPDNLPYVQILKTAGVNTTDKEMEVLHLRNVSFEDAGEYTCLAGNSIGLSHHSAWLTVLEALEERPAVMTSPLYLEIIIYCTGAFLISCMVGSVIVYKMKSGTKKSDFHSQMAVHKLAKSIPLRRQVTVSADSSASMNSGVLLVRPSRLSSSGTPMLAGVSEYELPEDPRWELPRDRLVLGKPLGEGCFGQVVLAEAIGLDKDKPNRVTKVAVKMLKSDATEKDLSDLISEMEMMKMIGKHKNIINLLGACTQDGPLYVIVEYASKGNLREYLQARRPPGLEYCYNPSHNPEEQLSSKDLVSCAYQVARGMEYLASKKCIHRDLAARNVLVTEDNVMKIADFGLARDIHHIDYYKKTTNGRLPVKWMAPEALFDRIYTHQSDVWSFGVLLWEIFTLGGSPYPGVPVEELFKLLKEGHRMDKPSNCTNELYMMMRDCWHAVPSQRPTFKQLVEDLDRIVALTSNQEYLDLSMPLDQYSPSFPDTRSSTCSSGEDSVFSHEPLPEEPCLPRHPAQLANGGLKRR
Protocol: The assay was performed using Kinase-Glo Plus luminescence kinase assay kit. It measures kinase activity by quantitating the amount of ATP remaining in solution following a kinase reaction. The luminescent signal from the assay is correlated with the amount of ATP present and is inversely correlated with the amount of kinase activity.

VEGFR-1 = VEGFR-1 (Homo sapiens, UniProt P17948); test: Kinase-Glo Plus RTK selectivity assay, VEGFR-1; type: biochemical; conditions: 10 μM ATP
Chain of VEGFR-1 (P17948 27-1338, species assumed): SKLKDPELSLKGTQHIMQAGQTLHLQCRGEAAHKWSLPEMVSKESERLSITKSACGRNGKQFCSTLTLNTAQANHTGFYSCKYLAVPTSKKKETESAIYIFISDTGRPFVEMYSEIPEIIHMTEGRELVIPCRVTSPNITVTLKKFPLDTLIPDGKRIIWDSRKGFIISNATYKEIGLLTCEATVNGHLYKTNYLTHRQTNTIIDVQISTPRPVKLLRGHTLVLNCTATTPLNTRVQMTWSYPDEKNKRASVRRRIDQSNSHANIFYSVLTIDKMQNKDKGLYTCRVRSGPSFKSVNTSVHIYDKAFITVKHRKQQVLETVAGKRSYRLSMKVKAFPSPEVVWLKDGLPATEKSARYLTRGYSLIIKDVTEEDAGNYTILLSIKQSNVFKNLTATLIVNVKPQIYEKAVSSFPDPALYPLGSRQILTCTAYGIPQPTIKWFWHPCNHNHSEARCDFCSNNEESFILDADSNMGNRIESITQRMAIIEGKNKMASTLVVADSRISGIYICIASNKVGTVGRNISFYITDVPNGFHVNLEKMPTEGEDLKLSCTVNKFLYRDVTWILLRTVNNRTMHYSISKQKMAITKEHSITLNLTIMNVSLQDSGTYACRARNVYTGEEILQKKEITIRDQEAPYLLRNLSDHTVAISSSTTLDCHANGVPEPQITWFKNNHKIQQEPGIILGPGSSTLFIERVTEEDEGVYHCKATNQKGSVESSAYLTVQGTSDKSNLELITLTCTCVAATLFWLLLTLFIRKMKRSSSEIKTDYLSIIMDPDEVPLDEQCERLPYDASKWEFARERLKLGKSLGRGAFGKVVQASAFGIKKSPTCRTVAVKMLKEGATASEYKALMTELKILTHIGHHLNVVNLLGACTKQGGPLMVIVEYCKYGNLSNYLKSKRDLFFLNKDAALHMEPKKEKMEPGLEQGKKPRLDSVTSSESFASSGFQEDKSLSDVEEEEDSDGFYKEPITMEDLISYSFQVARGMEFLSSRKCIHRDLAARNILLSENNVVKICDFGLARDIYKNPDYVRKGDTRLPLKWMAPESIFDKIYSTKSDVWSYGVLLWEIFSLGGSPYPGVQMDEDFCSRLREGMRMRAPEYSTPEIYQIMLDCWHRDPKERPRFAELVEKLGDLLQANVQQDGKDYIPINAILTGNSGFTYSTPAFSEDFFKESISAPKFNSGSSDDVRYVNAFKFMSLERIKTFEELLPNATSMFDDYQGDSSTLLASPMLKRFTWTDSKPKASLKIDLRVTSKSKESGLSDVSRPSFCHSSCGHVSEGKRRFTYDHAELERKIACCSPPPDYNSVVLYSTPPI
Protocol: as §1

TIE-2 = TIE-2 (Homo sapiens, UniProt Q02763); test: ADP-Glo in vitro RTK inhibition assay, TIE-2; type: biochemical; conditions: ATP 50 μM
Protocol: as §2, §3

EA.hy926 = test: Human endothelial cell (EA.hy926) viability assay, CCK-8; type: cell-based; conditions: CCK-8, 24 h treatment, read-out: Inhibition of human endothelial cell viability, EA.hy926 IC50
Protocol: In order to determine the anti-angiogenic effect of these multi-target inhibitors, we evaluated their effect on HECs (EA.hy926) viability using cell counting kit-8 (CCK-8) method.
The viability of HECs (EA.hy926) was assessed using the cell counting kit-8 (CCK-8, Sigma, USA) assay according to the manufacturer's instruction. […] After incubation at 37°C for 48 h, the cells were treated with tested compounds at various concentrations for 24 h. Subsequently, premixed CCK-8 and medium (10 μL) were added into the 96-well plates to monitor cell viability and were incubated at 37°C for 2 h. The number of viable cells was assessed by measurement of absorbance at 450 nm by a microplate reader. The viability rate was calculated as experimental OD value/control OD value.

c-Kit = c-Kit (Homo sapiens, UniProt P10721); test: Kinase-Glo Plus RTK selectivity assay, c-Kit; type: biochemical; conditions: 10 μM ATP
Protocol: as §1

VEGFR-2 [2] = biological target: T2, VEGFR-2; test: VEGFR-2/cell membrane chromatography (CMC) affinity evaluation; type: binding; conditions: flow rate 0.6 mL/min, 37°C, 5 mM PBS pH 7.4, 270 nm
Protocol: In previous studies, artificial cultures highly expressing VEGFR-2 on HEK293 cell lines were constructed. […] Chromatographic conditions: 10 mm×2.0 mm; flow rate0.6 mL/min; column temperature 37°C; mobile phase 5 mM PBS, pH 7.4; detection wavelength 270 nm.
The VEGFR-2 cell membrane stationary phase was prepared as previous reported. Aqueous ammonium acetate buffer solution (pH 7.4, 5 mM) was pumped at a flow rate of 0.2 mL/min as the mobile phase after VEGFR-2/CMC column was loaded onto the chromatography system at the temperature of 37°C. […] The mobile phase was 5.0 mM phosphate burred saline with a 0.6 mL/min flow rate at a column temperature of 37°C. The detected wavelength was 270 nm. The test compound was injected into the VEGFR-2/CMC column and their retention characteristics were identified to evaluate their affinity with VEGFR-2.

IC50 (EGFR) | IC50 (EphB4) | melting point | IC50 (VEGFR-2 [1]) | IC50 (B-Raf) | IC50 (FGFR-4) | IC50 (FGFR-1) | IC50 (VEGFR-1) | IC50 (TIE-2) | IC50 (c-Kit) | Retention time on VEGFR-2/cell membrane stationary phase column (VEGFR-2 [2]) | Compound | IC50 (EA.hy926) | IC50 (EA.hy926; Homo sapiens, EA.hy 926, 24 h)
113 nM | 13.9 nM | > 300 °C | 1.91 nM | 136 nM | 83.4 nM | 166 nM | 68.3 nM | 4.91 nM | > 500 nM | – | O=C(Nc1ccc(-c2ccc3c(=O)[nH]cnc3c2)cc1)Nc1ccccc1F [QDAU4, 1-(2-fluorophenyl)-3-(4-(4-oxo-3,4-dihydroquinazolin-7-yl)phenyl)urea] | 8640 nM | < 10000 nM
– | – | – | – | – | – | – | – | – | – | 4.5 min | COc1cc2c(Nc3ccc(Br)cc3F)ncnc2cc1OCC1CCN(C)CC1 [vandetanib, reference compound] | – | –

From paper PMC5739597, “Discovery and evaluation of triple inhibitors of VEGFR-2, TIE-2 and EphB4 as anti-angiogenic and anti-cancer agents” (Oncotarget, 2017)
